Data as given in ChEMBL document CHEMBL1201862, “PubChem BioAssay data set” (2004).
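Dose response: 5 concentrations. Exposure: 48 h. Format: 96-well plates. Endpoint: linear interpolation; highest concentration if not reached. Here, GI50 denotes the concentration required for 50% inhibition of growth.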 Activity calls are given as the source filed them. Rule as the data show it: active = GI50 up to about 1.1 µM and inactive = higher.

Columns and labels:
Assay in all cases: DTP human tumour cell line panel, 48 h
[1] = test system: SF-268
[2] = test system: KM12
[3] = test system: U-251
[4] = test system: HCT-15
[5] = test system: HT-29
[6] = test system: OVCAR-4
[7] = test system: SNB-75
[8] = test system: TK-10
[9] = test system: OVCAR-3
[10] = test system: A549
[11] = test system: M14
[12] = test system: RXF 393
[13] = test system: NCI-H226
[14] = test system: MDA-N
[15] = test system: HCT-116
[16] = test system: HL-60
[17] = test system: MCF7
[18] = test system: UACC-257
[19] = test system: SK-MEL-5

Compound	GI50 [1]	GI50 [2]	GI50 [3]	GI50 [4] [µM]	GI50 [5]	GI50 [6]	GI50 [7]	GI50 [8]	GI50 [9]	GI50 [10]	GI50 [11]	GI50 [12]	GI50 [13]	GI50 [14]	GI50 [15]	GI50 [16]	GI50 [17]	GI50 [18]	GI50 [19]
Cc1cc(O)cc2c1c(=O)c1ccccc1n2C	31.7 µM (inactive)	> 100 µM (inactive)	54.1 µM (inactive)	> 100	> 100 µM (inactive)	80.2 µM (inactive)	87.5 µM (inactive)	46.9 µM (inactive)	> 100 µM (inactive)	> 100 µM (inactive)	> 100 µM (inactive)	41.5 µM (inactive)	49.1 µM (inactive)	> 100 µM (inactive)	54.7 µM (inactive)	66.8 µM (inactive)	> 100 µM (inactive)	> 100 µM (inactive)	62.5 µM (inactive)
CCCCCC(=O)Nc1[nH]nnc1C#N	> 100 µM (inactive)	> 100 µM (inactive)	> 100 µM (inactive)	> 100	> 100 µM (inactive)	> 100 µM (inactive)	> 100 µM (inactive)	> 100 µM (inactive)	> 100 µM (inactive)	> 100 µM (inactive)	> 100 µM (inactive)	> 100 µM (inactive)	> 100 µM (inactive)	> 100 µM (inactive)	> 100 µM (inactive)	> 100 µM (inactive)	> 100 µM (inactive)	> 100 µM (inactive)	> 100 µM (inactive)
O=C(Nc1ccccc1)Nn1c(-c2cccs2)nc2ccc(I)cc2c1=O	30.4 µM (inactive)	31.3 µM (inactive)	23.9 µM (inactive)	31.5	25.9 µM (inactive)	16.9 µM (inactive)	2.74 µM (inactive)	28.4 µM (inactive)	11 µM (inactive)	19.2 µM (inactive)	35.9 µM (inactive)	30.4 µM (inactive)	28.8 µM (inactive)	23.2 µM (inactive)	31.4 µM (inactive)	1.41 µM (inactive)	29.1 µM (inactive)	17.2 µM (inactive)	17.1 µM (inactive)
O=C1C[C@@H](Sc2ccccc2)C2(OCCO2)C2ON3CCCC[C@H]3[C@H]12 (stereo not given in full)	7.55 µM (inactive)	4.48 µM (inactive)	4.73 µM (inactive)	2.81	4.75 µM (inactive)	7.73 µM (inactive)	12.4 µM (inactive)	6.34 µM (inactive)	13 µM (inactive)	7.36 µM (inactive)	10.7 µM (inactive)	4.48 µM (inactive)	13.8 µM (inactive)	13.2 µM (inactive)	4.33 µM (inactive)	1.67 µM (inactive)	6.32 µM (inactive)	14.2 µM (inactive)	7.74 µM (inactive)
N=c1oc2c(Cl)cc(Cl)cc2cc1C(=O)Nc1cccc2ccccc12	18 µM (inactive)	53.8 µM (inactive)	2.73 µM (inactive)	10.3	39.4 µM (inactive)	2.49 µM (inactive)	3.2 µM (inactive)	2.33 µM (inactive)	4.61 µM (inactive)	6.55 µM (inactive)	> 44.7 µM (inactive)	16.7 µM (inactive)	19.3 µM (inactive)	33 µM (inactive)	4.79 µM (inactive)	18.8 µM (inactive)	> 53.6 µM (inactive)	> 100 µM (inactive)	37.9 µM (inactive)
COc1c2ccccc2c(OC)c2nc(C)ccc12	> 100 µM (inactive)	> 100 µM (inactive)	42.5 µM (inactive)	41.3	49.3 µM (inactive)	> 100 µM (inactive)	> 100 µM (inactive)	> 100 µM (inactive)	> 100 µM (inactive)	> 100 µM (inactive)	> 100 µM (inactive)	> 100 µM (inactive)	> 100 µM (inactive)	> 100 µM (inactive)	> 80.2 µM (inactive)	26.8 µM (inactive)	> 74 µM (inactive)	> 77.3 µM (inactive)	71.4 µM (inactive)
CN1CCCCC1CCN1CCCCC1 (stereo not given)	> 100 µM (inactive)	> 100 µM (inactive)	> 100 µM (inactive)	> 100	> 100 µM (inactive)	> 100 µM (inactive)	> 100 µM (inactive)	> 100 µM (inactive)	> 100 µM (inactive)	> 100 µM (inactive)	> 100 µM (inactive)	> 100 µM (inactive)	> 100 µM (inactive)	> 100 µM (inactive)	> 100 µM (inactive)	83 µM (inactive)	> 100 µM (inactive)	> 100 µM (inactive)	> 100 µM (inactive)
Nc1ccc(Cc2ccc(N)c(C(=O)O)c2)cc1C(=O)O	> 100 µM (inactive)	> 100 µM (inactive)	> 100 µM (inactive)	> 100	> 100 µM (inactive)	> 100 µM (inactive)	> 100 µM (inactive)	> 100 µM (inactive)	> 100 µM (inactive)	> 100 µM (inactive)	> 100 µM (inactive)	> 100 µM (inactive)	> 100 µM (inactive)	> 100 µM (inactive)	> 100 µM (inactive)	> 100 µM (inactive)	> 100 µM (inactive)	> 100 µM (inactive)	> 100 µM (inactive)
COc1ccc(N2C(=O)C3c4[nH]c5cc(Cl)ccc5c4C4CCC(C(C)(C)C)CC4C3C2=O)cc1 (stereo not given)	> 100 µM (inactive)	65.8 µM (inactive)	95.1 µM (inactive)	87.5	31.7 µM (inactive)	94.4 µM (inactive)	> 100 µM (inactive)	> 100 µM (inactive)	67.6 µM (inactive)	60.7 µM (inactive)	> 100 µM (inactive)	> 100 µM (inactive)	> 100 µM (inactive)	> 100 µM (inactive)	55.6 µM (inactive)	26.9 µM (inactive)	33.7 µM (inactive)	> 100 µM (inactive)	> 100 µM (inactive)
CC(Cl)CC(=O)OCC1CCCN2CCCCC12 (stereo not given)	> 100 µM (inactive)	> 100 µM (inactive)	> 100 µM (inactive)	> 100	> 100 µM (inactive)	> 100 µM (inactive)	> 100 µM (inactive)	> 100 µM (inactive)	> 100 µM (inactive)	> 100 µM (inactive)	> 100 µM (inactive)	> 100 µM (inactive)	> 100 µM (inactive)	> 100 µM (inactive)	> 100 µM (inactive)	54.7 µM (inactive)	> 100 µM (inactive)	> 100 µM (inactive)	> 100 µM (inactive)
CC(C)(C)OC[C@H](O)CC#N	> 100 µM (inactive)	> 100 µM (inactive)	> 100 µM (inactive)	> 100	> 100 µM (inactive)	> 100 µM (inactive)	> 100 µM (inactive)	> 100 µM (inactive)	> 100 µM (inactive)	> 100 µM (inactive)	> 100 µM (inactive)	> 100 µM (inactive)	> 100 µM (inactive)	> 100 µM (inactive)	> 100 µM (inactive)	> 100 µM (inactive)	> 100 µM (inactive)	> 100 µM (inactive)	> 100 µM (inactive)
CCOC(=O)n1c2ccccc2c(=O)n1CCO	> 100 µM (inactive)	> 100 µM (inactive)	> 100 µM (inactive)	> 100	> 100 µM (inactive)	> 100 µM (inactive)	28.8 µM (inactive)	> 100 µM (inactive)	> 100 µM (inactive)	> 100 µM (inactive)	> 100 µM (inactive)	24.2 µM (inactive)	> 100 µM (inactive)	> 100 µM (inactive)	> 100 µM (inactive)	> 100 µM (inactive)	> 100 µM (inactive)	> 100 µM (inactive)	> 100 µM (inactive)
Cn1c(-c2ccccc2)cc2c3ccsc3c3ccsc3c21	> 100 µM (inactive)	16.1 µM (inactive)	> 100 µM (inactive)	29.2	> 100 µM (inactive)	> 100 µM (inactive)	> 100 µM (inactive)	21.3 µM (inactive)	> 100 µM (inactive)	> 100 µM (inactive)	> 100 µM (inactive)	> 100 µM (inactive)	> 100 µM (inactive)	> 100 µM (inactive)	> 100 µM (inactive)	> 100 µM (inactive)	4.75 µM (inactive)	> 100 µM (inactive)	> 100 µM (inactive)
CC(C)(C)OC(=O)NC(CCCCNC(=O)OCc1ccccc1)C(=O)NCCNc1ccc(NCCNC(=O)C(CCCCNC(=O)OCc2ccccc2)NC(=O)OC(C)(C)C)c2c1C(=O)c1ccccc1C2=O (stereo not given)	> 31.8 µM (inactive)	25.6 µM (inactive)	3.18 µM (inactive)	> 100	> 100 µM (inactive)	> 100 µM (inactive)	15.3 µM (inactive)	> 100 µM (inactive)	> 79.4 µM (inactive)	> 100 µM (inactive)	> 100 µM (inactive)	25.7 µM (inactive)	> 86.5 µM (inactive)	26.4 µM (inactive)	24.5 µM (inactive)	1.02 µM (active)	6.97 µM (inactive)	> 100 µM (inactive)	> 100 µM (inactive)
CC(=O)Nc1ccc(S(=O)(=O)[N-]C2C(=O)c3ccccc3C(=O)C2[n+]2ccccc2)cc1 (stereo not given)	18.5 µM (inactive)	14.6 µM (inactive)	14.3 µM (inactive)	28.3	45.1 µM (inactive)	15.5 µM (inactive)	16.1 µM (inactive)	> 100 µM (inactive)	16.4 µM (inactive)	19.5 µM (inactive)	14.1 µM (inactive)	16 µM (inactive)	> 100 µM (inactive)	17.2 µM (inactive)	> 100 µM (inactive)	13.8 µM (inactive)	16.8 µM (inactive)	16.1 µM (inactive)	3.87 µM (inactive)
